Results taken from ChEMBL document CHEMBL1201862, “PubChem BioAssay data set” (2004).
Activity calls are given as the source filed them.

Key:
cells [1] = assay type: functional, cell-based
INS1 = experiment: INS-1E survival protection against cytokine death – cell-based, luminescence, retest, dose response (AID 449756); assay type: functional; conditions: Rattus norvegicus;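 further: cell death triggered by IL-1 beta plus TNF-alpha plus IFN-gamma mixture; protective hits raise ATP signal compared with cytokine alone wells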
[2] = biological target: Serine/threonine-protein phosphatase PP1-alpha catalytic subunit (Homo sapiens, UniProt P62136); experiment: inhibition of protein phosphatase 1 activity – biochemical, fluorescence, dose response (AID 2403);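 further: phosphatase turnover of OMFP into fluorescent 3-O-methylfluorescein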
[3] = system: Streptococcus sp. 'group A'; experiment: Streptococcus pyogenes SK(-)GAS viability under kanamycin – luminescence, BacTiterGlo, confirmation, counter-screen for streptokinase expression inhibitor project, dose response (AID 1900); assay type: functional, organism-based
Nonstructural protein 1 = Nonstructural protein 1 (Influenza A virus, UniProt Q194T2); assay type: functional, Influenza A virus (A/California/07/2009(H1N1))
Streptococcus = experiment: GAS UMAA2166 growth inhibition – luminescence, BacTiterGlo, counter-screen for streptokinase expression inhibitor project, dose response (AID 1915); assay type: functional, organism-based;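 further: potency for reduction of bacterial viability or growth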
cells [4] = assay type: functional, cell-based; remark: listed apart in the source
[5] = biological target: Photoreceptor-specific nuclear receptor (Homo sapiens, UniProt Q9Y5X4); assay type: functional, cell-based;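 further: CHO-S cells with Gal4-NCOR and VP16-NR2E3 two-hybrid luciferase reporter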
[6] = ATP-based viability loss in HeLa cells – cell-based, CellTiter-Glo luminescence, dry powder, set 2, cytotoxicity control, dose response (AID 720593); assay type: functional
[7] = NIH3T3 cell viability loss – ATP luminescence, mouse fibroblasts, counter-screen, dose response (AID 2010); assay type: functional, cell-based;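 further: cells exposed to compound for about 90 hours before reading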
[8] = Trypanosoma cruzi growth suppression in host cells – NIH3T3 host cells, beta-gal luminescence, confirmation (AID 2044); assay type: functional, cell-based;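 further: intracellular parasites grown in NIH/3T3 mouse fibroblasts as host cells; luminescent beta-galactosidase reporter signal from transgenic T. cruzi replicating inside host cells; inhibitors lower the luminescence signal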
[9] = biological target: Serine/threonine-protein phosphatase (Homo sapiens, UniProt Q9BPW0); experiment: Counterscreen for inhibitors of PP1: fluorescence-based biochemical high throughput dose response assay to identify inhibitors of Protein Phosphatase 5 (PP5). [Related pubchem assays: 2034 (Summary (PP5 inhibitors)), 1987 (PP5 inhibitors in singlate), 2235 (PP1 inhibitors in singlate)]
Large T antigen = Large T antigen (Simian virus 40, UniProt P03070); assay type: functional, Betapolyomavirus macacae;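 further: Confirmatory-stage PubChem screen for compounds that inhibit SV40 T antigen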
cells [10] = conditions: HEK293;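 further: cells exposed to compound for 48 hours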
[11] = viability loss in HepG2 liver cells – cell-based, ATP luminescence, cherry-pick, set 6, cytotoxicity control, dose response (AID 1053125); assay type: functional
cells [12] = conditions: A549
Caspase-6 = Caspase-6 (Homo sapiens, UniProt P55212); experiment: inhibition of CASP6 peptide cleavage – biochemical, VEID-R110 fluorescence, cherry-pick, dose response (AID 720632)
cells [13] = experiment: cells
[14] = biological target: T1, Methionyl-tRNA synthetase, putative (Trypanosoma brucei brucei, UniProt Q38C91); assay type: functional, Trypanosoma brucei brucei strain 927/4 GUTat10.1
T1 sequence (Q38C91 whole entry): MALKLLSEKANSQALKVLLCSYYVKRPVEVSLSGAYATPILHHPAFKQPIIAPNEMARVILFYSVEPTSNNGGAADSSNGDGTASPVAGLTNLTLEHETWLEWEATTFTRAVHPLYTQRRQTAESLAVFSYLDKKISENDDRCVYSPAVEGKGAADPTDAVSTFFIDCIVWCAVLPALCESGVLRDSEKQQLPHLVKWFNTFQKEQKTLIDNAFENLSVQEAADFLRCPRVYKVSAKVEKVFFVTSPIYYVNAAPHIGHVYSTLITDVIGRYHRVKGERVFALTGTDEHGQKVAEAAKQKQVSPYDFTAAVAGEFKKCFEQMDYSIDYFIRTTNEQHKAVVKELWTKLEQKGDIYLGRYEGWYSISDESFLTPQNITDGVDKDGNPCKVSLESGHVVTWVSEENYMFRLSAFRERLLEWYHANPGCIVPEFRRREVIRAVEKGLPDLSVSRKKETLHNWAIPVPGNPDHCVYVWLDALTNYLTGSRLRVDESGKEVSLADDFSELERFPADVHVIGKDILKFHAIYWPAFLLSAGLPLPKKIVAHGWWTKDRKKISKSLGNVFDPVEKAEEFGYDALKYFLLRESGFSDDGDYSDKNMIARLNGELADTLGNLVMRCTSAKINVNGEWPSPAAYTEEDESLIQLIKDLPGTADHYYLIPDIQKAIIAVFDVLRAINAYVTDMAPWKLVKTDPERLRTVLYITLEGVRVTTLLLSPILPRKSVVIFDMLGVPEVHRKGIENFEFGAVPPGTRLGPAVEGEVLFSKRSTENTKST

[15] = Late stage counterscreen for inhibitors of Trypanosoma brucei methionyl tRNA synthetase (MetRS): Luminescence-based cell-based high throughput dose response assay to identify compounds that are cytotoxic to Jurkat human T lymphocyte cells.; assay type: functional
[16] = Counterscreen for inhibitors of Trypanosoma brucei methionyl tRNA synthetase (MetRS): Luminescence-based cell-based high throughput dose response assay to identify compounds that are cytotoxic to Jurkat human T lymphocyte cells.; assay type: functional
[17] = biological target: T1, Methionyl-tRNA synthetase, putative; assay type: functional, Trypanosoma brucei brucei strain 927/4 GUTat10.1; remark: listed apart in the source
[18] = biological target: T2, Low molecular weight phosphotyrosine protein phosphatase (Homo sapiens, UniProt P24666); assay type: functional; conditions: read-out: IC50_Mean
T2 sequence (P24666 whole entry): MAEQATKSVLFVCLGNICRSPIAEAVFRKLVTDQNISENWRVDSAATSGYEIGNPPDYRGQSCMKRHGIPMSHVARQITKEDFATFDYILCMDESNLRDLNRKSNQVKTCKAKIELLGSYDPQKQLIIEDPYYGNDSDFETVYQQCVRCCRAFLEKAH

[19] = loss of viability in HepG2 cells – cell-based, CellTiter-Glo, cherry-picked, cytotoxicity control for Shn3 inhibitor project, dose response (AID 624134); assay type: functional
[20] = EF1alpha-driven Renilla reporter with control 3'UTR suppression – Clone20-Shn3RL cells, dual-Glo, cherry-pick, set 2, counter-screen for Shn3 3'UTR targeting project, dose response (AID 720724); assay type: functional, cell-based; conditions: Dual-Go Shn3RL
[21] = biological target: T2, Low molecular weight phosphotyrosine protein phosphatase; assay type: functional; conditions: read-out: IC50_Mean; remark: listed apart in the source
[22] = non-specific 3'UTR reporter inhibition in Clone20-Shn3RL – cell-based, Renilla luciferase, cherry-picked, counter-screen for Shn3 inhibitor project, dose response (AID 624133); assay type: functional
[23] = Shn3 3'UTR reporter signal decrease – cell-based, Clone20 osteoblasts, firefly luciferase, cherry-pick, set 2, Schnurri-3 inhibitor project, dose response (AID 720490); assay type: functional;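 further: actives lower the luminescence signal as inhibitors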
[24] = reduction of Shn3 3'UTR-driven luciferase in osteoblasts – cell-based, Clone20 osteoblasts, firefly luciferase, cherry-picked, dose response (AID 624132); assay type: functional;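 further: firefly luciferase luminescence from reporter carrying the Shn3 3'UTR in osteoblasts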
[25] = general mammalian cell viability loss – inhibitor set, cherry-pick, set 2, cytotoxicity control for miR-122 modulator project, dose response (AID 720697); assay type: functional, cell-based
[26] = activation of miR-122 Renilla sensor silencing – cell-based, Huh7 psiCHECK-miR122, Renilla luciferase, cherry-picked, dose response (AID 651956); assay type: functional;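 further: huh7 hepatoma cells stably carrying a psiCHECK-2 miR-122 sensor plasmid; renilla luciferase signal reporting endogenous miR-122 activity after 48 h compound exposure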
[27] = general mammalian cell viability loss – activator set, cherry-pick, cytotoxicity control for miR-122 modulator project, dose response (AID 720690); assay type: functional, cell-based;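 further: HEK293T human cells scored for general mammalian cytotoxicity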
Paired box protein Pax-8 = Paired box protein Pax-8 (Homo sapiens, UniProt Q06710); experiment: PAX8 transcriptional activity inhibition in RMG-I – RMG-I cells, luciferase, cherry-pick, dose response (AID 687027); assay type: functional, cell-based;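 further: luciferase reporter driven by Pax8 target thyroperoxidase promoter measured by SteadyGlo luminescence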
[28] = biological target: NAD-dependent protein deacylase sirtuin-5, mitochondrial (Homo sapiens, UniProt Q9NXA8); experiment: blockers of sirtuin-5 peptide desuccinylation – biochemical, fluorescence imaging, cherry-pick, set 6, dose response (AID 720597)
[29] = OV-90 cell viability loss – plate reader, dry powder, SA8, PAX8 inhibitor project, dose response (AID 743149); assay type: functional, cell-based
[30] = toxicity toward immortalized ovarian surface epithelium – cell-based, plate reader, dry powder samples, cytotoxicity control for PAX8 inhibitor project, dose response (AID 743045); assay type: functional
[31] = COV362 cell viability loss – plate reader, dry powder, SA12, cytotoxicity control for PAX8 inhibitor project, dose response (AID 743144); assay type: functional, cell-based
[32] = inhibitors acting on PAX2 in cells – cell-based, plate reader, dry powder samples, selectivity assay for PAX8 inhibitor project, dose response (AID 743048); assay type: functional;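 further: HEK293 cells carrying a WT1 promoter luciferase reporter driven by expressed Pax2; potency is for inhibition of Pax2 driven reporter signal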
[33] = OVCAR8 cell viability loss – plate reader, dry powder samples, PAX8 project, dose response (AID 743197); assay type: functional, cell-based; conditions: OVCAR-8
[34] = PAX5 cellular inhibition readout – cell-based, plate reader, dry powder samples, selectivity assay for PAX8 inhibitor project, dose response (AID 743047); assay type: functional;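 further: HEK293 cells carrying a Pax5 driven CD19 promoter luciferase reporter; potency of inhibitors that lower reporter luminescence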
[35] = COV434 cell viability loss – plate reader, dry powder, SA7, cytotoxicity control for PAX8 inhibitor project, dose response (AID 743145); assay type: functional, cell-based
[36] = IGROV1 cell killing – plate reader, dry powder samples, PAX8 inhibitor project, dose response (AID 743043); assay type: functional, cell-based; conditions: IGROV-1
[37] = PAX8-dependent cell viability loss – plate reader, dry powder, dose response (AID 743049); assay type: functional, cell-based
[38] = OVCAR4 cell viability loss – plate reader, dry powder, SA11, cytotoxicity control for PAX8 inhibitor project, dose response (AID 743150); assay type: functional, cell-based; conditions: OVCAR-4
HEK293 = experiment: viability loss in HEK293T cells – cell-based, ATP luminescence, cherry-pick samples, cytotoxicity control, dose response (AID 687005); assay type: functional; conditions: Homo sapiens;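 further: cells exposed to compound for 48 hours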
[39] = HEK293 Cytotoxicity Assay Measured in Cell-Based System Using Plate Reader - 7071-01_Inhibitor_Dose_CherryPick_Activity_Set2.; assay type: functional
Mu-type opioid receptor = Mu-type opioid receptor (Homo sapiens, UniProt P35372); experiment: Late-stage results from the probe development effort to identify antagonists of OPRK1: luminescence-based cell-based dose response OPRM1 counterscreen.; assay type: functional
[40] = biological target: Delta-type opioid receptor (Homo sapiens, UniProt P41143); experiment: Late-stage results from the probe development effort to identify antagonists of OPRK1: fluorescence-based cell-based dose response OPRD1 counterscreen.; assay type: functional
[41] = biological target: Potassium channel subfamily K member 3 (Homo sapiens, UniProt O14649); experiment: inhibition of human KCNK3 channel flux – CHO cells, FluxOR thallium flux, SAR follow-up (AID 652212); assay type: functional
[42] = cytotoxicity in MITF-independent A375 cells – cell-based, CellTiter-Glo luminescence, dry powder, set 4, counter-screen for MITF inhibitor project, dose response (AID 624364); assay type: functional; conditions: A-375;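 further: A375 melanoma cells are MITF independent so this is a counter screen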
[43] = viability loss in MITF-independent A375 cells – cell-based, CellTiter-Glo luminescence, dry powder, set 2, counter-screen for MITF inhibitor project, dose response (AID 624489); assay type: functional; conditions: A-375;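 further: actives are compounds lowering A375 viability meaning general cytotoxicity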

Paired box protein Pax-8, sequence (Q06710 whole entry): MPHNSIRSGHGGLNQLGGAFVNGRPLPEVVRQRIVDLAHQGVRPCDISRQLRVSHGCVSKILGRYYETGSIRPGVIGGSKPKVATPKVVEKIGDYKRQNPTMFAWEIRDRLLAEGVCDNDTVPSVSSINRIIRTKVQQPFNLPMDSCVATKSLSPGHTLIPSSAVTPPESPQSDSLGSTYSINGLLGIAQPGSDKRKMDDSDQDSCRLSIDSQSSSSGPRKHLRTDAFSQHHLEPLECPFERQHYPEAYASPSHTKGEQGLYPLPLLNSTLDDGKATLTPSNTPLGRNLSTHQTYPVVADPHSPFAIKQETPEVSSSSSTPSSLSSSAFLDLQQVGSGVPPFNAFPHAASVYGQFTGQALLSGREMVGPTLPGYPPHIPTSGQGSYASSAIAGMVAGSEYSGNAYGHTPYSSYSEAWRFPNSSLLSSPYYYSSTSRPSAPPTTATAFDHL
Delta-type opioid receptor, sequence (P41143 whole entry): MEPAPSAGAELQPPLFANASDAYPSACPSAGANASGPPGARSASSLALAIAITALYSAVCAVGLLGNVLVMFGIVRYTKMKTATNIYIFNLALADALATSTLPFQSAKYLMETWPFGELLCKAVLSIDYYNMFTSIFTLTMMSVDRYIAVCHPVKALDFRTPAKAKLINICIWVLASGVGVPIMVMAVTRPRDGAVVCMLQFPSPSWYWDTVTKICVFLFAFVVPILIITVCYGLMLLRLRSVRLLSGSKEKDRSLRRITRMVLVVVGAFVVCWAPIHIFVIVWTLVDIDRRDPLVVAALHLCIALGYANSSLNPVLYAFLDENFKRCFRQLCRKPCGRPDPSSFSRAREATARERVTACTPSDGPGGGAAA
Large T antigen, sequence (P03070 whole entry): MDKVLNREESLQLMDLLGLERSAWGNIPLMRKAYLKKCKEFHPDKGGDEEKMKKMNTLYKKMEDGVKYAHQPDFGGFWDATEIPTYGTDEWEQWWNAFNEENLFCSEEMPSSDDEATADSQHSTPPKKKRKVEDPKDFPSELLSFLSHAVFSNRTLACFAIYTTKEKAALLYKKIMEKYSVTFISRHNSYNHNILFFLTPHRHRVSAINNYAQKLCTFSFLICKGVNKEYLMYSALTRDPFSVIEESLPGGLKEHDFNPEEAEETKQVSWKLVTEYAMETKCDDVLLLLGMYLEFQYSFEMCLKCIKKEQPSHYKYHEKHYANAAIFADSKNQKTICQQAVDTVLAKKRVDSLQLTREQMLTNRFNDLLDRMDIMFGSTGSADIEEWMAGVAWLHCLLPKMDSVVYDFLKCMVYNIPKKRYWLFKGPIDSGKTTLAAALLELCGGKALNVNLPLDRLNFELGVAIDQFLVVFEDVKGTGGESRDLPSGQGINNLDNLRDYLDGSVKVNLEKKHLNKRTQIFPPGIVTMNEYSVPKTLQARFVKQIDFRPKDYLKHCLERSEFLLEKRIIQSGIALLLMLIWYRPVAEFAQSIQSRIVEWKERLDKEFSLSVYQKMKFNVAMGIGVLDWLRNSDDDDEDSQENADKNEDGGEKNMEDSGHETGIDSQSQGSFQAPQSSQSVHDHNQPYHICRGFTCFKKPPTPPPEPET
Potassium channel subfamily K member 3, sequence (O14649 whole entry): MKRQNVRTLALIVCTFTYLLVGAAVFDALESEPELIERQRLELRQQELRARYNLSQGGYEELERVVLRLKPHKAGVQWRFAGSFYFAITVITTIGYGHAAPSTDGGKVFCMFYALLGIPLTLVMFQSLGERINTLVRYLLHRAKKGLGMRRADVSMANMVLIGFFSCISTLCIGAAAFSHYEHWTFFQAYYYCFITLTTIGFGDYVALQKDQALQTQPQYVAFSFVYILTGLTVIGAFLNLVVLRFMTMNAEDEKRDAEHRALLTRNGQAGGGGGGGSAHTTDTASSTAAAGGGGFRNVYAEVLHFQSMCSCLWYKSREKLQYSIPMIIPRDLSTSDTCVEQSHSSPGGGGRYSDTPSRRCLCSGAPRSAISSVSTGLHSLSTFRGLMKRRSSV
Caspase-6, sequence (P55212 24-179 limits assumed): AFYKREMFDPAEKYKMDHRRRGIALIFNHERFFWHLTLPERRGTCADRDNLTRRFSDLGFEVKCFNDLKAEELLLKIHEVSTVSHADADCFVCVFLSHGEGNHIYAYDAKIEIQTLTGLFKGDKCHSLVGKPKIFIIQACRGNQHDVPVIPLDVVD
Caspase-6, sequence (P55212 194-293 limits assumed): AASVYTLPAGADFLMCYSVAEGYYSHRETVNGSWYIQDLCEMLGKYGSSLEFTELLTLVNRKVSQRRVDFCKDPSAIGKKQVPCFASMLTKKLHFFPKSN
Mu-type opioid receptor, sequence (P35372 whole entry): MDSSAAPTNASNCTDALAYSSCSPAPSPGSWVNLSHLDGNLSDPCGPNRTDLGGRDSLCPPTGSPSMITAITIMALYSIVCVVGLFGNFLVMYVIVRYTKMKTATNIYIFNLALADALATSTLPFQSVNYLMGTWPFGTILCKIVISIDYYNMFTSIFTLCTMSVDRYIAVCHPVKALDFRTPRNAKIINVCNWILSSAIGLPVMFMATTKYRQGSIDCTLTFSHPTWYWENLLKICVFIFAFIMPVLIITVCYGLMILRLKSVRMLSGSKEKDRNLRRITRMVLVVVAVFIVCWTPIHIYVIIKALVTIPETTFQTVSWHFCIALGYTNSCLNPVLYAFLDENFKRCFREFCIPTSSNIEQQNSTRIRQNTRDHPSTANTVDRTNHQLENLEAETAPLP
Photoreceptor-specific nuclear receptor, sequence (Q9Y5X4 whole entry, the tested form may be a part): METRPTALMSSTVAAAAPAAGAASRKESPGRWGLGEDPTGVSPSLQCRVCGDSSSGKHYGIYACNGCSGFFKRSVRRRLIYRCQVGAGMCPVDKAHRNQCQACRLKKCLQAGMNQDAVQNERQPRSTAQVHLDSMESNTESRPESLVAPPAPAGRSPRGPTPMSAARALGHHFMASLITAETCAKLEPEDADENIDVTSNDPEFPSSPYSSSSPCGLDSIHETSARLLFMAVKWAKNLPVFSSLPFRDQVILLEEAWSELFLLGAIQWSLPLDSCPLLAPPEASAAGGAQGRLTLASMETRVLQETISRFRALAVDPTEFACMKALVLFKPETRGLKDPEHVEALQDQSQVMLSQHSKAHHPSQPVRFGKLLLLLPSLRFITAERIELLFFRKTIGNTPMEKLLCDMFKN
Serine/threonine-protein phosphatase PP1-alpha catalytic subunit, sequence (P62136 whole entry): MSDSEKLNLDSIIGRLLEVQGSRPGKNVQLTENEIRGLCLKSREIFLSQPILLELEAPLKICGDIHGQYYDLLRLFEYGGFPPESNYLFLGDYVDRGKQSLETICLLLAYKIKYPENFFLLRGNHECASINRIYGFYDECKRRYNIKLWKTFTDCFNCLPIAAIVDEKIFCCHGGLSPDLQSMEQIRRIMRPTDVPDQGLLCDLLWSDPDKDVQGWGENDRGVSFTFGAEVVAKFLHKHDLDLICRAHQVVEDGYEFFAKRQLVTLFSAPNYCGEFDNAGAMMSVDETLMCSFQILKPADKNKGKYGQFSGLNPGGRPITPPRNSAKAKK
NAD-dependent protein deacylase sirtuin-5, mitochondrial, sequence (Q9NXA8 whole entry): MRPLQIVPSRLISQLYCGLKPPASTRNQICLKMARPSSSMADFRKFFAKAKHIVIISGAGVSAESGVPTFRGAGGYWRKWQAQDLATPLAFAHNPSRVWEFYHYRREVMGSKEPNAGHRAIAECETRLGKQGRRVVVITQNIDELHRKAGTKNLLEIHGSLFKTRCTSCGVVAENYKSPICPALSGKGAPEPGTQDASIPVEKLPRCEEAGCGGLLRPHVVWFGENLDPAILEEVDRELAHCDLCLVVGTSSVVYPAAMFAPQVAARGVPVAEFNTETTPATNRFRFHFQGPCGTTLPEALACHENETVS
Nonstructural protein 1, sequence (Q194T2 whole entry): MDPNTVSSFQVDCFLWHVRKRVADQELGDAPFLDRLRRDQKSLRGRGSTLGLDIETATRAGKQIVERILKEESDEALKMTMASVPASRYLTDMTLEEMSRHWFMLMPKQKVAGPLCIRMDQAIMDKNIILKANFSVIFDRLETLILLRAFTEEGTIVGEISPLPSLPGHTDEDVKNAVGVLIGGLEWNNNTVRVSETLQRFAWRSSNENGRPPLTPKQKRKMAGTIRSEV
Serine/threonine-protein phosphatase, sequence (Q9BPW0 whole entry): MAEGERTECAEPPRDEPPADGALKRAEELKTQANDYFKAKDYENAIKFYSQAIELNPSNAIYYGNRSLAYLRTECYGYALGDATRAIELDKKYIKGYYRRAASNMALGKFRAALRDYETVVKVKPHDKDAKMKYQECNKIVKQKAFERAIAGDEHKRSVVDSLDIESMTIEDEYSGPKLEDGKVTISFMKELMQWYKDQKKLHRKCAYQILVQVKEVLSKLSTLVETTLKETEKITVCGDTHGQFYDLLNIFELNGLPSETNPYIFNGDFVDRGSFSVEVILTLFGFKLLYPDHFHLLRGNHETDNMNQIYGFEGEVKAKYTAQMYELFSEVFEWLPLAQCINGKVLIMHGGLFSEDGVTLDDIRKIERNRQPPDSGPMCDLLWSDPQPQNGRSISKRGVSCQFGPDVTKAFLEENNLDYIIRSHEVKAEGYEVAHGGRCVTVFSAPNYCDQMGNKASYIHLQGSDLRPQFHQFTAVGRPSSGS

Nc1nc(-c2ccccn2)nc(N)c1Cc1ccc(Cl)cc1Cl
EC50 (cells [1]): 13.9 µM (active) | AC50 (INS1): 4.55 µM (active) | IC50 [2]: 8.64 µM (active) | EC50 [3]: 3.52 µM (active) | IC50 (Nonstructural protein 1): 5.11 µM (active) | EC50 (Streptococcus): 13.5 µM (active) | EC50 (cells [4]): > 350 µM (not active) | IC50 [5]: 4.53 µM (active) | AC50 [6]: > 52 µM (inactive) | EC50 [7]: < 6 µM (inconclusive) | EC50 [8]: 1.26 µM (active) | IC50 [9]: 47.5 µM (not active)

O=C(c1ccccc1)N1CCN(c2ccc(NCc3ccc4c(c3)OCO4)cc2)CC1
IC50 (Large T antigen): > 100 µM (active) | AC50 (cells [10]): 20.2 µM (active) | AC50 [11]: > 52 µM (inactive) | AC50 (cells [12]): > 52 µM (inactive)

CCO/C(O)=C1/C(C)=Nc2ccccc2N=C1NS(=O)(=O)c1cc(C(=O)O)ccc1Cl
AC50 (Caspase-6): 28.8 µM (active)

CCN(CC)CCNC(=O)c1sc2nc(-c3ccccc3)cn2c1C
AC50 (cells [13]): 57 µM (active)

O=C(N/C(=C\c1cccnc1)c1nc2ccccc2[nH]1)c1cccc(Br)c1
IC50 [14]: 4.56 µM (active) | IC50 [15]: > 83.3 µM (inactive) | IC50 [16]: 83.3 µM (inactive) | IC50 [17]: 8.16 µM (active)

COCCNc1nc(NCc2ccc(C(C)C)cc2)c2sccc2n1
IC50 [18]: 13 µM (active) | AC50 [19]: 47.4 µM (active) | AC50 [20]: 33.2 µM (active) | IC50 [21]: 24.5 µM (inactive) | AC50 [22]: 17.5 µM (active) | AC50 [23]: 3 µM (active) | AC50 [24]: 3.95 µM (active)

CN1C(=O)c2cc(NC(=O)c3ccc(C(F)(F)F)cc3)ccc2OC[C@H]2O[C@H](CC(=O)NCc3ccc4c(c3)OCO4)CC[C@H]21
AC50 [25]: 0.571 µM (active) | AC50 [26]: 12.3 µM (active) | AC50 [27]: 28.4 µM (active)

Cc1ccc(S(=O)(=O)N(C)C[C@@H]2OCCCC[C@H](C)Oc3ccc(NS(=O)(=O)c4ccc(Cl)cc4)cc3C(=O)N([C@H](C)CO)C[C@H]2C)cc1
AC50 (Paired box protein Pax-8): 7.27 µM (active) | AC50 [28]: > 30 µM (inactive)

CCCNC(=O)N(C)C[C@H]1N[C@@H](CO)[C@@H]1c1ccc(C2=CCCCC2)cc1
AC50 [29]: 14.5 µM (active) | AC50 (Paired box protein Pax-8): 3.47 µM (active) | AC50 [30]: 25.9 µM (active) | AC50 [31]: 10.7 µM (active) | AC50 [32]: 8.91 µM (active) | AC50 [33]: 14.4 µM (active) | AC50 [34]: > 16 µM (inactive) | AC50 [35]: 18.2 µM (active) | AC50 [36]: 16.3 µM (active) | AC50 [37]: 10.1 µM (active) | AC50 [38]: 6.07 µM (active)

Cc1ccc(S(=O)(=O)N2CC[C@@H]3[C@H](CO)Nc4ccc(-c5ccccc5F)cc4[C@@H]32)cc1
AC50 (HEK293): 44.6 µM (active) | AC50 [39]: 44.6 µM (active)

COC(=O)c1cc(Br)cnc1N1CCC(NC2CCCC2)CC1
IC50 (Mu-type opioid receptor): 4 µM (active) | IC50 [40]: 7 µM (active)

CCOc1ccccc1NC(=O)c1cccc(NC(=O)C2CCCO2)c1 (configuration not stated)
IC50 [41]: 0.129 µM (active)

O=C(NC1=C(N2CCCCC2)C(=O)c2ccccc2C1=O)c1ccccc1
AC50 [42]: 54.4 µM (active) | AC50 [43]: > 70 µM (inactive)
